In publication PMC7500650, “Transformation of low molecular compounds and soil humic acid by two domain laccase of Streptomyces puniceus in the presence of ferulic and caffeic acids” (PLoS ONE, 2020):

Test system: T1, SpSL (two-domain laccase of Streptomyces puniceus)
T1 construct: TAT signal peptide (1-34) removed: forward primer GGATCC-GAGAAGCCGCCCCG starts the insert at EKPP; pQE-30 (His-tag, cleavage not mentioned), E. coli M15 (pREP4), HisTrap; precursor 344 residues; 110 kDa native homotrimer
Assay: oxidation kinetics, nonlinear regression
Assay type: biochemical
Conditions: apparent constant, co-substrate O2
Description: oxidation kinetics, nonlinear regression on SpSL (two-domain laccase of Streptomyces puniceus)

[1] = pH of kinetics not printed (alkaline optimum)

SMILES	Km [1]	Km (pH of kinetics not printed (routine ABTS assay: 20 mM Na-acetate pH 5.0, 420 nm))
COc1cccc(OC)c1O [2,6-Dimethoxyphenol]	1150 ± 100 µM	–
COc1ccccc1O [2-Methoxyphenol]	5700 ± 250 µM	–
CCn1c(=NN=c2sc3cc(S(=O)(=O)O)ccc3n2CC)sc2cc(S(=O)(=O)O)ccc21 [ABTS]	–	370 ± 21 µM
